Results from patent publication US6451568B1, “Cloning of human choline ethanolaminephospho transferases synthesis of phosphatidyl choline phosphatidyle thanolamine and platelet activating factor” (Dalhousie University, priority 1998, dated 2002).
Where “and” joins values, the source holds several entries; their conditions need not be identical. Identical values can stand only once. Entries after “also recorded” stand apart in the source; their conditions may differ.

T1: hCEPT1p (Homo sapiens, UniProt Q9Y6K0)
T1 construct: All of the hCEPT1p detected in S. cerevisiae was full length; made in house; host or cells: S. cerevisiae HJ091 (cpt1::LEU2 ept1-), plasmid pAH9, microsomal membranes
T1 sequence (Q9Y6K0 1-416): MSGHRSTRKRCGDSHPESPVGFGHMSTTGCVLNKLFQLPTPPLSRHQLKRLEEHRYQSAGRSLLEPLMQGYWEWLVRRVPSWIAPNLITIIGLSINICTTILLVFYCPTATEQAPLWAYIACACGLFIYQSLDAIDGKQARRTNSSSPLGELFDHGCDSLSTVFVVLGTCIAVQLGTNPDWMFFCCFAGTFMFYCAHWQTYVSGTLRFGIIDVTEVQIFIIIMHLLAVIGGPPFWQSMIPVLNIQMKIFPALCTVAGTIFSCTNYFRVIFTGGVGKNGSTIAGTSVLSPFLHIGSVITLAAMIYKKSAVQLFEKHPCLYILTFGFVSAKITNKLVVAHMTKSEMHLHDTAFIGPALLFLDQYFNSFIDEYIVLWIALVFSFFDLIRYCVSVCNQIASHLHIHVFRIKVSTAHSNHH

T2: hCEPT2 (Homo sapiens, UniProt Q8WUD6)
T2 construct: A full length cDNA was isolated using the Genetrapper™ system technology; expressed in transfected cells; host or cells: HEK293s cells, plasmid pCMVsport-hCEPT2 (clone from the pCMV-Sport human brain cDNA library), microsomal membranes
T2 sequence (Q8WUD6 2-406): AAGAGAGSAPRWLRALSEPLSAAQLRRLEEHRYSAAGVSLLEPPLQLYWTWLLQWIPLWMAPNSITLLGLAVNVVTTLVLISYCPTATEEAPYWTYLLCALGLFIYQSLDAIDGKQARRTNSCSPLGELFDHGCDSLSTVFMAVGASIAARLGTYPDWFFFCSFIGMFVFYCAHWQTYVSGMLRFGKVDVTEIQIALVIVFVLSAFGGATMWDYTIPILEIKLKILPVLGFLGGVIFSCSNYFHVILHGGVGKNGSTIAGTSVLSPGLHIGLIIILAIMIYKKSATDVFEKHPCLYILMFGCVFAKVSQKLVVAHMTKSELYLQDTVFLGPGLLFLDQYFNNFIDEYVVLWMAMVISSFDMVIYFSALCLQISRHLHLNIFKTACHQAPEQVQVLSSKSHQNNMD


What was measured:
[1] = target: T1, hCEPT1p; experiment: Choline-/ethanolaminephosphotransferase enzyme assay, microsomal membranes of S. cerevisiae HJ091 expressing hCEPT1; format: biochemical; details: for Specific activity with CDP-choline (in words): CDP-choline as donor, synthesis of PAF, acyl-PAF, di10:0 PtdCho; for Enzyme activity, CDP-choline: phosphobase donor CDP-choline; for Enzyme activity, CDP-choline / Enzyme activity, CDP-ethanolamine: diradylglycerol as acceptor substrate, hCEPT1p in S. cerevisiae HJ091 microsomes; for Enzyme activity, CDP-ethanolamine: phosphobase donor CDP-ethanolamine
Protocol: Diradylglycerols or ceramides were dried under nitrogen gas and resuspended in 0.015% (w/v) Tween 20™ by sonication. […] Assays were incubated at 37° C. for 15 min and activity terminated by the addition of 3 ml CHCl3/ CH3OH (2/1, v/v) followed by 1.5 ml 0.9% (w/v) KCl. Tubes were vortexed and phase separation facilitated by centrifugation at 2000 g for 10 min. The aqueous phase was aspirated and the organic phase was washed twice with 1.5 ml 40% (v/v) CH3OH. An aliquot of the organic phase was dried in a scintillation vial and radioactivity was determined.

[2] = target: T2, hCEPT2; experiment: Choline-/ethanolaminephosphotransferase activity of microsomes from HEK293s cells overexpressing hCEPT2; format: biochemical
Excerpt: A full length cDNA was isolated using the Genetrapper™ system technology (Life Technologies). A primer corresponding to the most 5′ RACE extneded sequence in hand, […] (SEQ ID NO: 11) was biotinylated using terminal deoxynucleotide transferase and hybridized in solution to a single stranded human brain cDNA library that had been generated by digestion of the library with Gene II protein and exonuclease III. Avidin bound to magnetic beads was used to selectively precipitate the biotinylated probe/hybridized cDNA complex, thus enriching the library for cDNAs complementary to the oligonucleotide used. The single stranded cDNAs were extended using Klenow and E. coli were transformed and screened for positive clones with the end labeled antisense oligo, […], found within the original EST 67440. Plasmid DNA from positive colonies was amplified and hCEPT2 specific inserts confirmed and sized by PCR.
Diradylglycerols or ceramides were dried under nitrogen gas and resuspended in 0.015% (w/v) Tween 20™ by sonication. Unless otherwise indicated, assay buffer contained 100 mM Tris-HCl (pH 8.0), 20 mM MgCl2, 1 mM EDTA, 1 mM diradylglycerol or ceramide (final Tween 20 concentration of 0.00375%, w/v), and 10 μg of microsomal protein. […] Assays were incubated at 37° C. for 15 min and activity terminated by the addition of 3 ml CHCl3/ CH3OH (2/1, v/v) followed by 1.5 ml 0.9% (w/v) KCl. Tubes were vortexed and phase separation facilitated by centrifugation at 2000 g for 10 min. The aqueous phase was aspirated and the organic phase was washed twice with 1.5 ml 40% (v/v) CH3OH. An aliquot of the organic phase was dried in a scintillation vial and radioactivity was determined. Samples were routinely analyzed by thin layer chromatography on silica gel plates in a solvent system of CHCl3/CH3OH/NH4OH/H2) (70/30/4/2, v/v) to confirm the synthesis of PtdCho, PtdEtn, and PAF and their analogues.

Row | Molecule | Enzyme activity, CDP-choline [1] | Enzyme activity, CDP-ethanolamine [1] | other results
1 | CCCCCCCCCCCCCCCCOCC(CO)OC(C)=O (stereo not drawn) [1-O-16:0/2:0] | 106.0 ± 5.6 nmol/min/mg |  | Specific activity with CDP-choline (in words) ([1]; listed as 1O-16:0/2:0): highest specific activities; Specific activity with CDP-choline (in words) ([1]; listed as 16:0/2:0): High activities
2 | NCCOP(=O)(O)OP(=O)(O)OC[C@H]1O[C@@H](n2ccc(N)nc2=O)[C@H](O)[C@@H]1O [CDP-ethanolamine] |  |  | Vmax(app) ([1]; di18:1 as the diradylglycerol substrate): 12.8 nmol/min/mg; Km ([1]; di18:1 as the diradylglycerol substrate, read-out: Km(app)): 109 µM
3 | O[C@@H](CS)[C@@H](O)CS [DTT] |  |  | Effect of DTT on cholinephosphotransferase activity ([1]; DTT 0-5 mM in assay mix, regardless of the diradylglycerol substrate, data not shown): insensitive; also recorded: did not affect
4 | CCCCCCCC(=O)OC[C@H](CO)OC(=O)CCCCCCC [di8:0] | 54.9 ± 6.4 nmol/min/mg | 3.1 ± 0.4 nmol/min/mg | 
5 | CCCCCCCCCC(=O)OCC(CO)OC(=O)CCCCCCCCC (stereo not drawn) [di10:0] | 172.5 ± 9.8 nmol/min/mg | 3.7 ± 0.4 nmol/min/mg | Specific activity with CDP-choline (in words) [1]: highest specific activities
6 | CCCCCCCCCCCC(=O)OCC(CO)OC(=O)CCCCCCCCCCC (stereo not drawn) [di12:0] | 27.2 ± 6.9 nmol/min/mg | 2.7 ± 0.3 nmol/min/mg | 
7 | CCCCCCCCCCCCCC(=O)OC[C@H](CO)OC(=O)CCCCCCCCCCCCC [di14:0] | 6.7 ± 0.2 nmol/min/mg | 3.7 ± 0.1 nmol/min/mg | 
8 | CCCCCCCCCCCCCCCC(=O)OC[C@H](CO)OC(=O)CCCCCCCCCCCCCCC [di16:0] | 4.3 ± 0.2 nmol/min/mg | 3.5 ± 0.2 nmol/min/mg | 
9 | hCEPT2: human choline/ethanolaminephosphotransferase 2, SEQ ID NO:4 (protein) MAAGAGAGSAPRWLRALSEPLSAAQLRRLEEHRYSAAGVSLLEPPLQLYWTWLLQWIPLWMAPNSITLLGLAVNVVTTLVLISYCPTATEEAPYWTYLLCALGLFIYQSLDAIDGKQARRTNSCSPLGELFDHGCDSLSTVFMAVGASIAARLGTYPDWFFSCSFIGMFVFYCAHWQTYVSGMLRFGKVDVTEIQIALVIVFVLSAFGGATMWDYTIPILEIKLKILPVLGFLGGVIFSCSNYFHVILHGGVGKNGSTIAGTSVLSPGLHIGLIIILAIMIYKKSATDVFEKHPCLYILMFGCVFAKVSQKLVVAHMTKSELYLQDTVFLGPGLLFLDQYFNNFIDEYVVLWMAMVISSFDMVIYFSALCLQISRHLHLNIFKTACHQAPEQVQVLSSKSHQNNMD |  |  | Cholinephosphotransferase activity, mean ([2]; CDP-AA choline, mean of duplicates): 10.673 nmol/min/mg; Cholinephosphotransferase activity ([2]; CDP-AA choline, single determinations): 10.638 nmol/min/mg and 10.708 nmol/min/mg; Ethanolaminephosphotransferase activity, mean ([2]; CDP-AA ethanolamine, mean of duplicates): 2.427 nmol/min/mg; Ethanolaminephosphotransferase activity ([2]; CDP-AA ethanolamine, single determinations): 2.169 nmol/min/mg and 2.685 nmol/min/mg
